Results on 26 molecules are retold here after US20060045953A1 (priority 2004, published 2006).

In the first assay the target is T1, hT1R1/hT1R3 umami receptor (Homo sapiens, UniProt Q7RTX0+Q7RTX1).
T1 construct: expressed in transfected cells; host or cells: HEK293 derivative stably expressing Gα15, clone I-17, expression induced with mifepristone
T1 sequence (Q7RTX1 21-841): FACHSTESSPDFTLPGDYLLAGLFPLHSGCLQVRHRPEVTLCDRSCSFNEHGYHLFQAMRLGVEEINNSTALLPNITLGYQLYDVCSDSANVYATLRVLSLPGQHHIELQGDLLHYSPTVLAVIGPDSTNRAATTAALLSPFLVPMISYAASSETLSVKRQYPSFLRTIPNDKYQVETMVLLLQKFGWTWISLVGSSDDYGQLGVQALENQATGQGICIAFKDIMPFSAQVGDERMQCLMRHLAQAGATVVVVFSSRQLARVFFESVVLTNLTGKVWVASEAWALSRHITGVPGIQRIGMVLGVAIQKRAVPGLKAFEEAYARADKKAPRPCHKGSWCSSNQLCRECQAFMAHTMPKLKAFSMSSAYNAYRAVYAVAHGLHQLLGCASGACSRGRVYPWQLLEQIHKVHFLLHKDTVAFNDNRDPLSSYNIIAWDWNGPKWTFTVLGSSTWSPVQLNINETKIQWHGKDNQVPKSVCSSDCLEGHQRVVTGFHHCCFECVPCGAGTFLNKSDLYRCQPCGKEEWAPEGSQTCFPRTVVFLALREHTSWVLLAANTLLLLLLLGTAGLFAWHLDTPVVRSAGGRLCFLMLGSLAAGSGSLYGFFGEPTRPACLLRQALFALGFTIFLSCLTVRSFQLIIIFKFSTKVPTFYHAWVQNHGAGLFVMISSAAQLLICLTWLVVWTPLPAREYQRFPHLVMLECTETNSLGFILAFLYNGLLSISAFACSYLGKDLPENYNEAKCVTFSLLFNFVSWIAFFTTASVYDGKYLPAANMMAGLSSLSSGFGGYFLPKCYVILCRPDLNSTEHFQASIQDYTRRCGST
T1 sequence (Q7RTX0 21-852): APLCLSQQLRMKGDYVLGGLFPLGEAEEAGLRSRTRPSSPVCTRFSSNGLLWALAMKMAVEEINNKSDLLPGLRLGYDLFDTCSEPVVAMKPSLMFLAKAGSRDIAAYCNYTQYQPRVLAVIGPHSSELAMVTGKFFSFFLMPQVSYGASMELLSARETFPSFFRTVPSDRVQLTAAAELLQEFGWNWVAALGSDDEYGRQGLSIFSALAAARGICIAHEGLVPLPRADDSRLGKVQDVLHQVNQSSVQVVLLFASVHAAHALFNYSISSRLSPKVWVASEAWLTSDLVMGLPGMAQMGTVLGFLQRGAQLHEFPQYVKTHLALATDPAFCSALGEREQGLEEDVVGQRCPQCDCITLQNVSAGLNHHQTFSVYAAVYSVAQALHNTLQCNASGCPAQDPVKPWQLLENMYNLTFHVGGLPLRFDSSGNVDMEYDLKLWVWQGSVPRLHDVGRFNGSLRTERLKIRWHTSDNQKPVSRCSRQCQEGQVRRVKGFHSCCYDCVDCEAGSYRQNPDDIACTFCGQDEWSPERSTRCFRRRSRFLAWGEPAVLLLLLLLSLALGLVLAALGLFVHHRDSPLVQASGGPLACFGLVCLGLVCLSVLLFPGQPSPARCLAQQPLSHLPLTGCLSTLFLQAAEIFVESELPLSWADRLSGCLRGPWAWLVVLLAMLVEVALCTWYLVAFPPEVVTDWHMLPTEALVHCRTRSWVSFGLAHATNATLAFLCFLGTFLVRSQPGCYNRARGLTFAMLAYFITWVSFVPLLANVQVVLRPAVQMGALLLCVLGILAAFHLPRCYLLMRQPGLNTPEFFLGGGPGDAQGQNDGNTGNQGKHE
As to the kind of experiment: In vitro hT1R1/hT1R3 umami taste receptor activation assay (FLIPR, dose response). It is filed as cell-based. The note with it: Table A, Umami Amides; read-out: Umami EC50.
Turning to `CCCCC(NC(=O)c1ccc2c(c1)OCO2)C(=O)OC` (centres unmarked) [Example A43, 2-[(Benzo[1,3]dioxole-5-carbonyl)-amino]-hexanoic acid methyl ester], the EC50 came to 490 nM.
Same read-out and setting: in the case of `CCCC(CCC)NC(=O)c1cccc(C)c1` [Example A83, (heptan-4-yl)-3-methylbenzamide] it was 520 nM; in that of `CCOc1ccc(NC(=O)c2c(Cl)ccc(Cl)c2OC)cc1` [Example A1, 3,6-Dichloro-N-(4-ethoxy-phenyl)-2-methoxy-benzamide], 220 nM.
Same read-out and setting: with `Cc1cc(C(=O)N[C@H]2CCc3ccccc32)ccc1O` [Example A111, (S)-N-(2,3-dihydro-1H-inden-1-yl)-4-hydroxy-3-methylbenzamide] the figure was 660 nM; with `Cc1cc(C(=O)NC2CCCc3ccccc32)ccc1O` (centres unmarked) [Example A102, 4-hydroxy-3-methyl-N-(1,2,3,4-tetrahydronaphthalen-1-yl)benzamide], 1320 nM.

The assay is the same for the next values; noted with them: read-out: EC50 for activation of a hT1R1/hT1R3 umami receptor expressed in an HEK293 cell line.
As for `CCCC(CCC)NC(=O)/C=C/c1ccc(OC)c(OC)c1` [Example 87, 3-(3,4-Dimethoxy-phenyl)-N-(1-propyl-butyl)-acrylamide], the EC50 was determined as 970 nM.
On the same count and under the same terms, with `CCCC(CCC)NC(=O)c1ccc2[nH]cnc2c1` [Example 38, N-(heptan-4-yl)-1H-benzo[d]imidazole-5-carboxamide] the figure was 18600 nM.

In the next assay the target is T2, hT1R2/hT1R3 sweet receptor (Homo sapiens, UniProt Q7RTX0+Q8TE23).
T2 construct: expressed in transfected cells; host or cells: HEK293 derivative stably expressing Gα15, clone S-9
T2 sequence (Q8TE23 20-839): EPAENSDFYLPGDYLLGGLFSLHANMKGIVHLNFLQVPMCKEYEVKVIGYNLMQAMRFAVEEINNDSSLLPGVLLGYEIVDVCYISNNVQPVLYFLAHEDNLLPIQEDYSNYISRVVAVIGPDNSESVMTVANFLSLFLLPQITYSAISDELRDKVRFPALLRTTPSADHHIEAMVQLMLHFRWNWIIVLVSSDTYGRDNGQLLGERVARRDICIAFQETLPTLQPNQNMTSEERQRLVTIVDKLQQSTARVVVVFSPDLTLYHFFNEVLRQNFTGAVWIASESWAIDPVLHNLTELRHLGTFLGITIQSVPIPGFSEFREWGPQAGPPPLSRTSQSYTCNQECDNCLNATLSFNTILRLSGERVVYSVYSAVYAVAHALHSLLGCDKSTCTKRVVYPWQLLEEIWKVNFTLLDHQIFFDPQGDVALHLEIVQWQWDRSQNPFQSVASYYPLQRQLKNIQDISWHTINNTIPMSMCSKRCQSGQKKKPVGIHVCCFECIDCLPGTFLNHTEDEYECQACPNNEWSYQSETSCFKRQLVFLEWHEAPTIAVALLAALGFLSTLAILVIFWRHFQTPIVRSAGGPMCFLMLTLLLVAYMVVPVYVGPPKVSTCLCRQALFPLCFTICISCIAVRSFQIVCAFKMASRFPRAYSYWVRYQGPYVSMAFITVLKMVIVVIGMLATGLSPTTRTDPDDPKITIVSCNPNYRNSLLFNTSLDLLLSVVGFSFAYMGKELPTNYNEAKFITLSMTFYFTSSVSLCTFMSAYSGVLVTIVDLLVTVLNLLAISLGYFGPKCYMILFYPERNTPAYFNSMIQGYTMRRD
T2 sequence (Q7RTX0 21-852): T1 sequence (Q7RTX0 21-852)
As to the kind of experiment: In vitro hT1R2/hT1R3 sweet taste receptor activation assay (FLIPR, dose response). It is filed as cell-based. The following applies: Table E, Sweet Enhancer Amides; read-out: Sweet EC50. As to the method: Activity was determined using an automated fluorometric imaging assay on a FLIPR instrument (Fluorometric Intensity Plate Reader, Molecular Devices, Sunnyvale, Calif.) (designated FLIPR assay). […] S-9 cells were grown for 24 hours at 37° C. S-9 cells were then loaded with the calcium dye Fluo-3AM (Molecular Probes, Eugene, Oreg.), 4 µM in a phosphate buffered saline (D-PBS) (Invitrogen, Carlsbad, Calif.), for 1 hour at room temperature. After replacement with 25 µl D-PBS, stimulation was performed in the FLIPR instrument and at room temperature by the addition of 25 µl D-PBS supplemented with different stimuli at concentrations corresponding to twice the desired final level.
For dose-responses analysis, stimuli were presented in duplicates at 10 different concentrations ranging from 60 nM to 30 µM. Activities were normalized to the response obtained with 400 mM D-fructose, a concentration that elicits maximum receptor response. EC50s were determined using a non-linear regression algorithm (using a Senomyx, Inc. software), where the Hill slope, bottom asymptotes and top asymptotes were allow to vary.
In the case of `Cc1ccc(NC(=O)N2Cc3ccccc3C2)cc1` [Example E104, N-p-tolylisoindoline-2-carboxamide], the EC50 turned out to be 3050 nM.
The same measure, in the same setting: with `CSc1nc(C)c(C(=O)Nc2ccccc2)c(C)c1C#N` [Example E95, 5-Cyano-2,4-dimethyl-6-methylsulfanyl-N-phenyl-nicotinamide] the figure was 3580 nM; with `CC1CCCC(NC(=O)Cc2c(F)c(F)c(F)c(F)c2F)C1C` (centres unmarked) [Example E74, N-(2,3-dimethylcyclohexyl)-2-(perfluorophenyl)acetamide], 3620 nM.
Same read-out and setting: in the case of `COc1c(Cl)ccc(Cl)c1C(=O)Nc1ccc(C)cc1C` [Example E97, 3,6-Dichloro-N-(2,4-dimethyl-phenyl)-2-methoxy-benzamide] it was 4250 nM.
Regarding `Cc1c(F)c(F)c(C(=O)N[C@@H]2CC3CCC2C3)c(F)c1F` (stereo partly drawn) [Example E41, N-((2R)-bicyclo[2.2.1]heptan-2-yl)-2,3,5,6-tetrafluoro-4-methylbenzamide], the EC50 came out at 1020 nM.
The same measure, in the same setting: with `Cc1cccc(C(=O)NC2CCCCC2C)c1C` (centres unmarked) [Example E63, 2,3-dimethyl-N-(2-methylcyclohexyl)benzamide] the figure was 2600 nM.
On the same count and under the same terms, in the case of `Cc1c(Cl)cccc1C(=O)N[C@H]1CCCc2ccccc21` [Example E13, (S)-3-chloro-2-methyl-N-(1,2,3,4-tetrahydronaphthalen-1-yl)benzamide] it was 2910 nM; in that of `CC1CCCCC1NC(=O)c1cccc(C(F)(F)F)c1` (centres unmarked) [Example E59, N-(2-methylcyclohexyl)-3-(trifluoromethyl)benzamide], 2340 nM; in that of `COc1cccc2c1CCCC2NC(=O)c1conc1C` (centres unmarked) [Example E12, N-(5-methoxy-1,2,3,4-tetrahydronaphthalen-1-yl)-3-methylisoxazole-4-carboxamide], 2850 nM.
Still for that read-out and setting: with `O=C(Nc1nnc(C(F)(F)F)s1)c1ccc(F)c(Cl)c1` [Example E87, 3-Chloro-4-fluoro-N-(5-trifluoromethyl-[1,3,4]thiadiazol-2-yl)-benzamide] the figure was 1550 nM; with `Cc1c(F)c(F)c(C(=O)NC(C)C(C)(C)C)c(F)c1F` (centres unmarked) [Example E28, N-(3,3-dimethylbutan-2-yl)-2,3,5,6-tetrafluoro-4-methylbenzamide], 210 nM.
For `Cc1nocc1C(=O)NC1CCC(C)c2ccccc21` (centres unmarked) [Example E11, 3-methyl-N-(4-methyl-1,2,3,4-tetrahydronaphthalen-1-yl)isoxazole-4-carboxamide], the EC50 worked out at 2460 nM.
Same read-out and setting: in the case of `Cc1cc(Cl)ccc1NC(=O)N1Cc2cccc(C)c2C1` [Example E114, N-(4-chloro-2-methylphenyl)-4-methylisoindoline-2-carboxamide] it was 190 nM; in that of `COc1ccc(NC(=O)c2ccc(F)c(Cl)c2)c(OC)c1` [Example E94, 3-chloro-N-(2,4-dimethoxyphenyl)-4-fluorobenzamide], 3560 nM; in that of `COc1c(Cl)ccc(Cl)c1C(=O)NC1CCCCC1C` (centres unmarked) [Example E37, 3,6-dichloro-2-methoxy-N-(2-methylcyclohexyl)benzamide], 770 nM.

The assay is the same for the next values; noted with them: read-out: EC50 for activation of a hT1R2/hT1R3 sweet receptor expressed in an HEK293 cell line.
As for `COc1cccc2c1CCC[C@H]2NC(=O)c1conc1C` [Example 190, (R)-3-methyl-N-(5-methoxy-1,2,3,4-tetrahydronaphthalen-1-yl)isoxazole-4-carboxamide], the EC50 amounted to 950 nM.
With `Cc1ccc2c(c1)C(NC(=O)c1cccc(Cl)c1O)CCC2` (centres unmarked) [Example 178, 3-Chloro-2-hydroxy-N-(7-methyl-1,2,3,4-tetrahydronaphthalen-1-yl)benzamide], the EC50 came out at 1480 nM.
Still for that read-out and setting: in the case of `C=CCc1c(F)c(F)c(C(=O)N[C@@H](C)C(C)C)c(F)c1F` [Example 191, (S)-4-allyl-2,3,5,6-tetrafluoro-N-(3-methylbutan-2-yl)benzamide] it was 140 nM.
On the same count and under the same terms, in the case of `O=C(Nc1c(F)cc(Br)cc1F)N1Cc2cccc([N+](=O)[O-])c2C1` [Example 196, N-(4-Bromo-2,6-difluorophenyl)-4-nitroisoindoline-2-carboxamide] it was 1070 nM.
